Measured values: PubChem BioAssay (NCI)
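Test compounds were applied to cells in 96-well plates for 48 hours at 5 doses. The concentration for 50% growth inhibition is given as GI50. TGI marks complete inhibition of growth.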

What was measured:
Experiment in all cases: growth of human tumour cells (NCI), 48 h
A498 renal = system: A498 renal
T-47D breast = system: T-47D breast
LOX IMVI melanoma = system: LOX IMVI melanoma
BT-549 breast = system: BT-549 breast
PC-3 prostate = system: PC-3 prostate
NCI-H23 lung = system: NCI-H23 lung
NCI-H226 lung = system: NCI-H226 lung
HCC-2998 colon = system: HCC-2998 colon
OVCAR-8 ovarian = system: OVCAR-8 ovarian
SK-MEL-28 melanoma = system: SK-MEL-28 melanoma
SK-OV-3 ovarian = system: SK-OV-3 ovarian
UACC-257 melanoma = system: UACC-257 melanoma
TK-10 renal = system: TK-10 renal
SN12C renal = system: SN12C renal
SNB-19 CNS = system: SNB-19 CNS
A549 NSCLC = system: A549 NSCLC
MDA-MB-435 = system: MDA-MB-435
SF-268 CNS = system: SF-268 CNS
IGROV1 ovarian = system: IGROV1 ovarian
OVCAR-5 ovarian = system: OVCAR-5 ovarian
HL-60(TB) leukemia = system: HL-60(TB) leukemia
SF-539 CNS = system: SF-539 CNS
CAKI-1 renal = system: CAKI-1 renal
SW-620 colon = system: SW-620 colon
SK-MEL-5 melanoma = system: SK-MEL-5 melanoma
HCT-116 colon = system: HCT-116 colon
MOLT-4 leukemia = system: MOLT-4 leukemia
SK-MEL-2 melanoma = system: SK-MEL-2 melanoma
RXF 393 renal = system: RXF 393 renal

With `Clc1ccc2c(c1)C(Br)c1cc(Cl)cc(Cl)c1-2` (configuration not stated) the GI50 (A498 renal) was greater than 100 µM, the TGI (A498 renal) was greater than 100 µM and the GI50 (T-47D breast) was greater than 100 µM. It also gave a TGI (T-47D breast) greater than 100 µM, a GI50 (LOX IMVI melanoma) of 2.46 µM and a TGI (LOX IMVI melanoma) greater than 100 µM. The GI50 (BT-549 breast) was 3.56 µM, the TGI (BT-549 breast) was 41.6 µM and the GI50 (PC-3 prostate) was greater than 100 µM. It also gave a TGI (PC-3 prostate) greater than 100 µM, a GI50 (NCI-H23 lung) of 2.83 µM and a TGI (NCI-H23 lung) of 36.8 µM. For the same molecule, the GI50 (NCI-H226 lung) was 2.75 µM, the TGI (NCI-H226 lung) was 34.8 µM and the GI50 (HCC-2998 colon) was greater than 100 µM. The TGI (HCC-2998 colon) was greater than 100 µM, the GI50 (OVCAR-8 ovarian) was 28.6 µM and the TGI (OVCAR-8 ovarian) was greater than 100 µM. For the same molecule, the GI50 (SK-MEL-28 melanoma) was greater than 100 µM, the TGI (SK-MEL-28 melanoma) was greater than 100 µM and the GI50 (SK-OV-3 ovarian) was greater than 100 µM. The TGI (SK-OV-3 ovarian) was greater than 100 µM, the GI50 (UACC-257 melanoma) was greater than 100 µM and the TGI (UACC-257 melanoma) was greater than 100 µM. For the same molecule, the GI50 (TK-10 renal) was greater than 100 µM, the TGI (TK-10 renal) was greater than 100 µM and the GI50 (SN12C renal) was 3.84 µM. For the same molecule, the TGI (SN12C renal) was greater than 100 µM, the GI50 (SNB-19 CNS) was greater than 100 µM and the TGI (SNB-19 CNS) was greater than 100 µM. The GI50 (A549 NSCLC) was greater than 100 µM, the TGI (A549 NSCLC) was greater than 100 µM and the GI50 (MDA-MB-435) was 5.19 µM. It also gave a TGI (MDA-MB-435) greater than 100 µM, a GI50 (SF-268 CNS) of 29.9 µM and a TGI (SF-268 CNS) greater than 100 µM. It also gave a GI50 (IGROV1 ovarian) of 18.6 µM, a TGI (IGROV1 ovarian) greater than 100 µM and a GI50 (OVCAR-5 ovarian) greater than 100 µM. It also gave a TGI (OVCAR-5 ovarian) greater than 100 µM, a GI50 (HL-60(TB) leukemia) greater than 100 µM and a TGI (HL-60(TB) leukemia) greater than 100 µM. It also gave a GI50 (SF-539 CNS) of 82.5 µM, a TGI (SF-539 CNS) greater than 100 µM and a GI50 (CAKI-1 renal) of 56.4 µM. It also gave a TGI (CAKI-1 renal) greater than 100 µM, a GI50 (SW-620 colon) of 5.46 µM and a TGI (SW-620 colon) greater than 100 µM. For the same molecule, the GI50 (SK-MEL-5 melanoma) was 6.81 µM, the TGI (SK-MEL-5 melanoma) was 72.3 µM and the GI50 (HCT-116 colon) was 8.74 µM. It also gave a TGI (HCT-116 colon) greater than 100 µM, a GI50 (MOLT-4 leukemia) of 10.8 µM and a TGI (MOLT-4 leukemia) greater than 100 µM. The GI50 (SK-MEL-2 melanoma) was 33.8 µM, the TGI (SK-MEL-2 melanoma) was greater than 100 µM and the GI50 (RXF 393 renal) was 27 µM.
